*1 amine or outer side, *2 acyl side, *3 side chain or, on linkers, in order; H or OH if unused. Where a SMILES comes first, the peptide text is derived from it. Bridges are numbered along the chain shown (N, C = ends). [ ]: non-standard residue; d: D form. The star is where a group is joined. Phe(3,5-F2) = N[C@@H](Cc1cc(F)cc(F)c1)C(=O)O; NHPh(4-CF3) = FC(F)(F)c1ccc(N*)cc1; Heptenoyl(2E) = CCCC/C=C/C(=O)*; aThr = C[C@H](O)[C@H](N)C(=O)O; Pip = O=C(O)[C@@H]1CCCCN1; CO = O=C([*:1])[*:2]
Test system: E. coli K12ΔtolC
Assay: Minimal inhibitory concentration, microbroth dilution
Format: cell-based
Settings: not given
How it was run: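 MICs were determined by CLSI broth microdilution, using two-fold compound dilutions from a final 200 μM and about 10^5 cfu/mL inoculum. Plates were incubated aerobically at 37 °C overnight. The MIC was read visually as the lowest concentration preventing growth.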
With `C[C@@H]1C[C@H]2C(=O)OC[C@H](NC(=O)[C@H](Cc3ccccc3)NC(=O)Nc3ccc(N(C)C)cc3)C(=O)N3CCC[C@H]3C(=O)N3CCCC[C@H]3C(=O)N[C@@H](C)C(=O)N2C1` [Compound 5, (S)—N-((2R,6S,8aS,14aS,20S,23aS)-2,6-Dimethyl-5,8,14,19,23-Pentaoxooctadecahydro-1H,5H,14H,19H-Pyrido[2,1-1]Dipyrrolo[2,1-C:2′,1′-L][1]Oxa[4,7,10,13]Tetraazacyclohexadecin-20-Yl)-2-(3-(4-(Dimethylamino)Phenyl)Ureido)-3-Phenylpropanamide] the “Minimal Inhibitory Concentration E. coli K12ΔtolC” value was 50 µM.
In the case of `C[C@@H]1C[C@H]2C(=O)OC[C@H](NC(=O)[C@H](Cc3ccccc3)NC(=O)Nc3ccccc3Cl)C(=O)N3CCC[C@H]3C(=O)N3CCCC[C@H]3C(=O)N[C@@H](C)C(=O)N2C1` [Compound 7, (S)-2-(3-(2-Chlorophenyl)Ureido)-N-((2R,6S,8aS,14aS,20S,23aS)-2,6-Dimethyl-5,8,14,19,23-Pentaoxooctadecahydro-1H,5H,14H,19H-Pyrido[2,1-I]Dipyrrolo[2,1-C:2′,1′-L][1]Oxa[4,7,10,13]Tetraazacyclohexadecin-20-Yl)-3-Phenylpropanamide], the “Minimal Inhibitory Concentration E. coli K12ΔtolC” value is reported as 200 µM.
In the case of `C[C@@H]1C[C@H]2C(=O)OC[C@H](NC(=O)[C@H](Cc3ccccc3)NC(=O)Nc3ccc(Cl)cc3)C(=O)N3CCC[C@H]3C(=O)N3CCCC[C@H]3C(=O)N[C@@H](C)C(=O)N2C1` [Compound 3, (S)-2-(3-(4-Chlorophenyl)Ureido)-N-((2R,6S,8aS,14aS,20S,23aS)-2,6-Dimethyl-5,8,14,19,23-Pentaoxooctadecahydro-1H,5H,14H,19H-Pyrido[2,1-I]Dipyrrolo[2,1-C:2′,1′-L][1]Oxa[4,7,10,13]Tetraazacyclohexadecin-20-Yl)-3-Phenylpropanamide], the “Minimal Inhibitory Concentration E. coli K12ΔtolC” value is reported as 25 µM.
With `COc1ccc(NC(=O)N[C@@H](Cc2ccccc2)C(=O)N[C@H]2COC(=O)[C@@H]3C[C@@H](C)CN3C(=O)[C@H](C)NC(=O)[C@@H]3CCCCN3C(=O)[C@@H]3CCCN3C2=O)cc1` [Compound 6, (S)—N-((2R,6S,8aS,14aS,20S,23aS)-2,6-Dimethyl-5,8,14,19,23-Pentaoxooctadecahydro-1H,5H,14H,19H-Pyrido[2,1-1]Dipyrrolo[2,1-C:2′,1′-L][1]Oxa[4,7,10,13]Tetraazacyclohexadecin-20-Yl)-2-(3-(4-Methoxyphenyl)Ureido)-3-Phenylpropanamide] the “Minimal Inhibitory Concentration E. coli K12ΔtolC” value was 50 µM.
In the case of `C[C@@H]1C[C@H]2C(=O)OC[C@H](NC(=O)[C@H](Cc3ccccc3)NC(=O)Nc3cccc(Cl)c3)C(=O)N3CCC[C@H]3C(=O)N3CCCC[C@H]3C(=O)N[C@@H](C)C(=O)N2C1` [Compound 9, (S)-2-(3-(3-Chlorophenyl)Ureido)-N-((2R,6S,8aS,14aS,20S,23aS)-2,6-Dimethyl-5,8,14,19,23-Pentaoxooctadecahydro-1H,5H,14H,19H-Pyrido[2,1-I]Dipyrrolo[2,1-C:2′,1′-L][1]Oxa[4,7,10,13]Tetraazacyclohexadecin-20-Yl)-3-Phenylpropanamide], the “Minimal Inhibitory Concentration E. coli K12ΔtolC” value is reported as 25 µM.

Test system: not listed separately
Assay: Microsomal metabolic stability determination
Settings: CD-1, mouse, microsomes, pH 7.4
Method: Compounds were initially prepared by dissolving them into DMSO at a final concentration of 10 mM. NADPH regenerating solutions A and B and mouse liver microsomes (CD-1) were obtained from BD Gentest (Woburn, Mass.). Ninety-six well deep well plates were obtained from MidWest Scientific Inc (Valley Park, Mo.).
Sample preparation for microsomal stability was modified from methods of Di, L., et al., Int J Pharm. 2005 Jun. 13; 297(1-2): 110-9. A set of incubation times of 0, 15, 30, 60, 120, and 240 minutes were used. Mouse liver microsomal solutions were prepared by adding 58 μL of concentrated human or mouse liver microsomes (20 mg/mL protein concentration) to 1.756 mL of 0.1 M potassium phosphate buffer (pH 7.4) and 5 μL of 0.5 M EDTA to make a 0.6381 mg/mL (protein) microsomal solution. NADPH regenerating agent contained 113 μL of NADPH A, 23 μL of NADPH B, and 315 μL of 0.1 M potassium phosphate buffer (pH 7.4). The diluted test compound solutions (2 μL) were each added directly to a 1.79 mL of liver microsomal solution. This solution was mixed and 90 μL was transferred to 6 time points plates (each in triplicate wells). For the time 0 plate, 225 μL of cold acetonitrile with internal standard ([…] warfarin) was added to each well, followed by addition of NADPH regenerating agent (22.5 μL) and no incubation. For other five time points' plate, NADPH regenerating agent (22.5 μL) was added to each well to initiate the reaction. The plates were incubated at 37° C. for the required time, followed by quenching of the reaction by adding 225 μL of cold acetonitrile with internal standard (4 μg/ml warfarin). All of the plates were sealed and mixed well at 600 rpm for 10 minutes followed by centrifugation at 4000 rpm for 20 minutes. The supernatants (120 μL) were transferred to analytical plates for analysis by LCMS. LCMS conditions were described in the materials and instrumentation section above. The metabolic stability is evaluated via the half-life from least-squares fit of the multiple time points based on first-order kinetics.
`Cc1ccc(NC(=O)N[C@@H](Cc2ccccc2)C(=O)N[C@H]2COC(=O)[C@@H]3C[C@@H](C)CN3C(=O)[C@H](C)NC(=O)[C@@H]3CCCCN3C(=O)[C@@H]3CCCN3C2=O)cc1` [Compound 23, (S)—N-((2R,6S,8aS,14aS,20S,23aS)-2,6-Dimethyl-5,8,14,19,23-Pentaoxooctadecahydro-1H,5H,14H,19H-Pyrido[2,1-I]Dipyrrolo[2,1-C:2′,1′-L][1]Oxa[4,7,10,13]Tetraazacyclohexadecin-20-Yl)-3-Phenyl-2-(3-(P-Tolyl)Ureido)Propanamide] showed a half-life of 178 ± 18 min.
Work on `CCCC/C=C/C(=O)N[C@@H](Cc1cc(F)cc(F)c1)C(=O)N[C@@H]1C(=O)N2CCC[C@H]2C(=O)N2CCCC[C@H]2C(=O)N[C@@H](C)C(=O)N2CCC[C@H]2C(=O)O[C@H]1C` [ADEP 2719, reference compound] ({Heptenoyl(2E)}-[Phe(3,5-F2)][aThr]P[Pip]AP; ester 2-C) yielded a half-life of 6 min.
Work on `C[C@@H]1NC(=O)[C@@H]2CCCCN2C(=O)[C@@H]2CCCN2C(=O)[C@@H](NC(=O)[C@H](Cc2cc(F)cc(F)c2)NC(=O)Nc2ccc3c(c2)OCO3)[C@H](C)OC(=O)[C@@H]2CCCN2C1=O` [Compound 17, (S)-2-(3-(Benzo[D][1,3]Dioxol-5-Yl)Ureido)-3-(3,5-Difluorophenyl)-N-((6S,8aS,14aS,20S,21 S,23aS)-6,21-Dimethyl-5,8,14,19,23-Pentaoxooctadecahydro-1H,5H,14H,19H-Pyrido[2,1-I]Dipyrrolo[2,1-C:2′,1′-L][1]Oxa[4,7,10,13]Tetraazacyclohexadecin-20-Yl)Propanamide] yielded a half-life of 486 ± 66 min.
Compound `C[C@H]1C[C@H]2C(=O)O[C@@H](C)[C@H](NC(=O)[C@H](Cc3cc(F)cc(F)c3)NC(=O)Nc3ccc4c(c3)OCO4)C(=O)N3CCC[C@H]3C(=O)N3CCCC[C@H]3C(=O)N[C@@H](C)C(=O)N2C1` [Compound 20, (S)-2-(3-(Benzo[D][1,3]Dioxol-5-Yl)Ureido)-3-(3,5-Difluorophenyl)-N-((2R,6S,8aS,14aS,20S,21 S,23aS)-2,6,21-Trimethyl-5,8,14,19,23-Pentaoxooctadecahydro-1H,5H,14H,19H-Pyrido[2,1-I]Dipyrrolo[2,1-C:2′,1′-L][1]Oxa[4,7,10,13]Tetraazacyclohexadecin-20-Yl)Propanamide] has a half-life of 414 ± 78 min.
With `Cc1ccc(NC(=O)N[C@@H](Cc2cc(F)cc(F)c2)C(=O)N[C@@H]2C(=O)N3CCC[C@H]3C(=O)N3CCCC[C@H]3C(=O)N[C@@H](C)C(=O)N3C[C@@H](C)C[C@H]3C(=O)O[C@H]2C)cc1` [Compound 18, (S)-3-(3,5-Difluorophenyl)-2-(3-(P-Tolyl)Ureido)-N-((2R,6S,8aS,14aS,20S,21S,23aS)-2,6,21-Trimethyl-5,8,14,19,23-Pentaoxooctadecahydro-1H,5H,14H,19H-Pyrido[2,1-I]Dipyrrolo[2,1-C:2′,1′-L][1]Oxa[4,7,10,13]Tetraazacyclohexadecin-20-Yl)Propanamide] the half-life was 60 ± 6 min.
`C[C@@H]1NC(=O)[C@@H]2CCCCN2C(=O)[C@@H]2CCCN2C(=O)[C@@H](NC(=O)[C@H](Cc2cc(F)cc(F)c2)NC(=O)Nc2ccc(C(F)(F)F)cc2)[C@H](C)OC(=O)[C@@H]2CCCN2C1=O` [Compound 16, (S)-3-(3,5-Difluorophenyl)-N-((6S,8aS,14aS,20S,21 S,23aS)-6,21-Dimethyl-5,8,14,19,23-Pentaoxooctadecahydro-1H,5H,14H,19H-Pyrido[2,1-I]Dipyrrolo[2,1-C:2′,1′-L][1]Oxa[4,7,10,13]Tetraazacyclohexadecin-20-Yl)-2-(3-(4-(Trifluoromethyl)Phenyl)Ureido)Propanamide] ({NHPh(4-CF3)-CO}-[Phe(3,5-F2)][aThr]P[Pip]AP; ester 2-C) gave a half-life of 42 min.
For `Cc1ccc(NC(=O)N[C@@H](Cc2cc(F)cc(F)c2)C(=O)N[C@@H]2C(=O)N3CCC[C@H]3C(=O)N3CCCC[C@H]3C(=O)N[C@@H](C)C(=O)N3CCC[C@H]3C(=O)O[C@H]2C)cc1` [Compound 15, (S)-3-(3,5-Difluorophenyl)-N-((6S,8aS,14aS,20S,21 S,23aS)-6,21-Dimethyl-5,8,14,19,23-Pentaoxooctadecahydro-1H,5H,14H,19H-Pyrido[2,1-I]Dipyrrolo[2,1-C:2′,1′-L][1]Oxa[4,7,10,13]Tetraazacyclohexadecin-20-Yl)-2-(3-(P-Tolyl)Ureido)Propanamide], the half-life was 18 min.
Work on `C[C@H]1C[C@H]2C(=O)O[C@@H](C)[C@H](NC(=O)[C@H](Cc3cc(F)cc(F)c3)NC(=O)Nc3ccc(C(F)(F)F)cc3)C(=O)N3CCC[C@H]3C(=O)N3CCCC[C@H]3C(=O)N[C@@H](C)C(=O)N2C1` [Compound 19, (S)-3-(3,5-Difluorophenyl)-2-(3-(4-(Trifluoromethyl)Phenyl)Ureido)-N-((2R,6S,8aS,14aS,20S,21S,23aS)-2,6,21-Trimethyl-5,8,14,19,23-Pentaoxooctadecahydro-1H,5H,14H,19H-Pyrido[2,1-I]Dipyrrolo[2,1-C:2′,1′-L][1]Oxa[4,7,10,13]Tetraazacyclohexadecin-20-Yl)Propanamide] yielded a half-life of 30 min.
